# Entries after “also recorded” stand apart in the source; their conditions may differ. Where a name gives a salt, the structure may show the parent alone. Read-outs that look alike come from different tables or passages of the source.
# Assays:
# [1] = test system: NCC (lysis of IM-9 target cells); assay: NCC cytotoxicity (51Cr release) after treatment with protein kinase inhibitors; type: cell-based, channel catfish (Ictalurus punctatus); conditions: for Percentage specific release: media control 25.9%; for activation at 30 µM / activation at 60 µM: read-out: Percentage increase (vs media control)
# Protocol: To prepare NCC, fish were lightly anesthetized with ethyl m-aminobenzoate (Sigma Chemical Co.) in water and sacrificed.
# IM-9 target cells were used in cytotoxicity assays. […] Cells were grown in stationary suspension cultures and were maintained at approximately 1×10^6 cells/ml. […]
# [2] = test system: cyclic nucleotide dependent kinases; conditions: cited from earlier work
# protein kinase C (PKC) = conditions: cited from earlier work
# [3] = test system: NCC (lysis of IM-9 target cells); assay: Costimulation assay: NCC cytotoxicity (51Cr release) with A23187 or mab 5C6; type: cell-based, channel catfish (Ictalurus punctatus); conditions: for activity at 60 µM: Ictalurus punctatus, IM-9, 2 h, mabs 1:50 dilution, H-7, HA1004 60 μM, genistein 0.5 μg/ml
# Protocol: Incubation was two hours and cells were either washed or not washed before addition to ^51 Cr-labeled IM-9 target cells (4- to 6-hour cytotoxicity assays).
# To further investigate this inhibitory effect, a costimulus experiment was done using a calcium ionophore, e.g., A23187, combined with the various inhibitors and activators of NCC activity. Pretreatment of NCC with A23187 produced an almost identical increase in cytotoxicity regardless of the identity of the first treatment.
# In a second costimulus experiment mab 5C6 was used (instead of A23187) to activate cytotoxicity (Table 6).
# [4] = test system: NCC membrane proteins (tyrosine phosphorylation); assay: Tyrosine phosphorylation of NCC membrane proteins following mab 5C6 activation (Western blot); type: cell-based, channel catfish (Ictalurus punctatus); conditions: NCC pretreated two hours with inhibitor; 100 μg/ml genistein or 30 μM HA1004
# Protocol: FIG. 1. Tyrosine phosphorylation of NCC membrane proteins following activation by mab 5C6. NCC were resuspended at 500×10^6 /ml and 200 μl aliquots were incubated at 37° C. with either 125 μl ammonium sulfate precipitate mab 5C6 (left panel) or an isotype control (right panel). At the indicated timed intervals, the reactions were terminated by addition of 325 μl of 2×lysis buffer. Lysates were immunoprecipitated with mab 4G10, electrophoresed on 11% SDS-PAGE, blotted onto nitrocellulose, and probed with mab 4G10. Molecular weight markers are indicated by the arrows.
# FIG. 2. Tyrosine phosphorylation of Percoll-enriched NCC. Fish NCC were centrifuged for 15 minutes at 500 g on a 45.5% Percoll cushion. The cells at the interphase were harvested, washed, and treated with mab 5C6 for 0 and 20 sec before addition of 2×lysis buffer. Lysates were electrophoresed, blotted on nitrocellulose, and probed with mab 4G10.
# FIG. 3. Effects of genistein on tyrosine phosphorylation in fish NCC. Fish NCC were incubated with media, genistein (100 μg/ml), or HA1004 (30 μM) for two hours prior to activation for zero time with mab 5C6 (left lane) and 40 sec with either mab 5C6 (middle lane) or an irrelevant IgM isotype control (right lane). Reactions were stopped by addition of lysis buffer and lysates were processed as explained in the legends to FIGS. 1 and 2. […]
# Na^+ /K^+ ATPase = conditions: cited from earlier work
compound,measurement,setting,value
"CNCCNS(=O)(=O)c1cccc2cnccc12.Cl.Cl [H-8, N-(2-(methylamino)ethyl)-5-isoquinolinesulfonamide di-HCl]",inhibition of NCC cytotoxicity,[1],time and dose dependent inhibition of NCC cytotoxicity
same,inhibition at 30 µM,"[1]; Ictalurus punctatus, 1.5 h, read-out: Percentage inhibition (NCC activity), 30 μM, 90 minutes, washed, E:T 80.1",0%
same,inhibition at 60 µM,"[1]; Ictalurus punctatus, 1.5 h, read-out: Percentage inhibition (NCC activity), 60 μM, 90 minutes, washed, E:T 80.1",13.8%
same,inhibition at 150 µM,"[1]; Ictalurus punctatus, 1.5 h, read-out: Percentage inhibition (NCC activity), 150 μM, 90 minutes, washed, E:T 80.1",36.9%
same,inhibition at 300 µM,"[1]; Ictalurus punctatus, 1.5 h, read-out: Percentage inhibition (NCC activity), 300 μM, 90 minutes, washed, E:T 80.1",46.5%
same,"inhibition of NCC activity, comparison with H-7","[1]; approximately 150 μM H-8, di-HCl",levels of inhibition comparable to that obtained with an approximately 30 μM concentration of H-7
same,inhibition of cyclic nucleotide dependent kinases,[2],more inhibitory of cyclic nucleotide dependent kinases
same,effect on protein kinase C,protein kinase C (PKC); di-HCl,almost no effect on PKC activity; also recorded: limited effect on PKC
"N=C(N)NCCNS(=O)(=O)c1cccc2cnccc12 [HA1004, N-(2-guanidoethyl)-5-isoquinolinesulfonamide di-HCl]",effect of removal (washing) of inhibitor on cytotoxicity,[1],did not reduce the augmentation of cytotoxicity
same,Percentage specific release,"[1]; 30 μM, 60 min",38.7%
same,Percentage specific release,"[1]; 30 μM, 120 min",39.0%
same,Percentage specific release,"[1]; 30 μM, 180 min/wash",36.0%
same,Percentage specific release,"[1]; 30 μM, 180 min",35.9%
same,Percentage specific release,"[1]; 60 μM, 60 min",38.5%
same,Percentage specific release,"[1]; 60 μM, 120 min",36.9%
same,Percentage specific release,"[1]; 60 μM, 180 min/wash",34.2%
same,Percentage specific release,"[1]; 60 μM, 180 min",36.5%
same,activation at 30 µM,"[1]; Ictalurus punctatus, 1 h, 30 μM, 60 min",49.2%
same,activation at 60 µM,"[1]; Ictalurus punctatus, 1 h, 60 μM, 60 min",48.3%
same,activation at 30 µM,"[1]; Ictalurus punctatus, 2 h, 30 μM, 120 min",50.2%
same,activation at 60 µM,"[1]; Ictalurus punctatus, 2 h, 60 μM, 120 min",42.1%
same,activation at 30 µM,"[1]; Ictalurus punctatus, 3 h, 30 μM, 180 min/wash",38.7%
same,activation at 30 µM,"[1]; Ictalurus punctatus, 3 h, 30 μM, 180 min",38.5%
same,activation at 60 µM,"[1]; Ictalurus punctatus, 3 h, 60 μM, 180 min/wash",31.8%
same,activation at 60 µM,"[1]; Ictalurus punctatus, 3 h, 60 μM, 180 min",40.6%
same,Percentage specific release,"[3]; E:T 40:1, 10^-4 M A23187, 60 μM H7 and HA1004, 0.5 μg/ml genistein, 1:3 dilution of tissue culture supernatant, media control 20.6",33.2%
same,activity at 60 µM,"[3]; 4 × 10^6 NCC/ml, read-out: Percentage of control (E:T ratio) 40%",211%
same,activity at 60 µM,[3]; read-out: Percentage of control (E:T ratio) 20%,243%
same,influence of pretreatment on A23187 activation,"[3]; pretreatment prior to A23187, di-HCl",did not appear to be additive and did not influence the final level of activation
same,inhibition of cyclic nucleotide dependent kinases,[2],inhibits mostly cyclic nucleotide dependent kinases
same,effect on protein kinase C,protein kinase C (PKC),no effect on PKC
same,specific protein phosphorylation after mab 5C6,[4],did occur
"[O]=[V+2] [vanadyl ion, vanadyl (IV) ion]",Na^+ /K^+ ATPase inhibition,Na^+ /K^+ ATPase,little effect
